Publication PMC3703888, “Integration of Different “-omics” Technologies Identifies Inhibition of the IGF1R-Akt-mTOR Signaling Cascade Involved in the Cytotoxic Effect of Shikonin against Leukemia Cells” (Evidence-based Complementary and Alternative Medicine : eCAM, 2013)

Legend:
U937 leukemia cells = test: Resazurin reduction assay (cytotoxicity); format: cell-based; conditions: Homo sapiens, U-937, 24 h treatment, read-out: IC50 (inhibition of U937 proliferation by 50%)
Method: Resazurin reduction assay was performed to assess cytotoxicity of shikonin toward U937 cells. The assay is based on reduction of the indicator dye, resazurin, to the highly fluorescent resorufin by viable cells. Nonviable cells rapidly lose the metabolic capacity to reduce resazurin and thus produce no fluorescent signal. Briefly, aliquots of 2 × 10^4 U937 cells per well were seeded in 96-well plates in a total volume of 100 μL. Shikonin was immediately added in varying concentrations in an additional 100 μL of culture medium to obtain a total volume of 200 μL/well. After 24 h, 20 μL resazurin (Sigma-Aldrich, Germany) 0.01% w/v in ddH2O was added to each well and the plates were incubated at 37°C for 4 h. Fluorescence was measured on an Infinite M2000 Pro plate reader (Tecan, Germany) using an excitation wavelength of 544 nm and an emission wavelength of 590 nm. Each assay was done at least two times, with six replicates each. The viability was evaluated based on a comparison with untreated cells. IC50 value represents the shikonin concentrations required to inhibit 50% of cell proliferation and was calculated from a calibration curve by linear regression using Microsoft Excel.

U937 cells = test: Stable-isotope dimethyl labeling quantitative proteomics; format: cell-based; conditions: 0.3 μM shikonin (IC50), 24 h vs DMSO
Method: To examine quantitative changes in the proteome of U937 leukemia cells after shikonin treatment, the dimethyl labeling proteomics analysis was performed. Briefly, 5 × 10^6 U937 cells were seeded in 10 mL RPMI 1640 medium in a 25 cm^2 culture flask. Subsequently, cells were treated with 0.3 μM shikonin (IC50) or DMSO as solvent control for 24 h. After incubation cells were washed with PBS and protein extraction was performed using the M-PER Mammalian Protein Extraction Reagent (Thermo Scientific, Germany) containing a protease inhibitor cocktail (Roche, Germany), cells were incubated with the extraction reagent for 40 min at 4°C. After incubation, cellular debris was removed by centrifugation at 14000 ×g for 15 min. Supernatants were transferred into new tubes and an acetone precipitation of the proteins was performed. After precipitation, the acetone was removed and the protein pellet in each of the tube was further diluted to 1 μg/μL with 50 mM TEABC and reduced with 5 mM TCEP for 1 h at 37°C, followed by alkylation using 2 mM MMTS for 45 min at room temperature. For the proteolytic digestion, the modified tube-gel digestion protocol was applied and the detergent residue was checked using the method described previously. Two 200 μg proteolytic protein mixtures from DMSO and shikonin treated cells were first dissolved in 200 μL of 100 mM TEABC (pH 8.5) and, respectively, mixed with 20 μL of formaldehyde and formaldehyde-13C, d2 (4%, diluted with H2O). After vortexing (5 min) and centrifugation, each of the sample solutions was mixed with 20 μL of 600 mM sodium cyanoborohydride solution. The sample solutions were vortexed (10 min) and centrifuged again and then allowed to react for 30 min at 25°C. To quench the reaction, ammonium hydroxide (7% in water, 10 μL) was added to each sample solution. Finally, 16 μL of formic acid was added to acidify each of the sample solutions and two samples were further combined for strong cation exchange (SCX) fractionation.
For SCX fractionation, the buffer SCX-A (5 mM KH2PO4 in 25% ACN at pH 3) and SCX-B (5 mM KH2PO4 and 350 mM KCl in 25% ACN at pH 3) were used as the mobile phase. The peptide mixtures were reconstituted in buffer SCX-A and then loaded into a PolySULFOETHYL A column (200 × 2.1 mm, 5 μm, 300Å, PolyLC, Columbia, MD) for 10 min at the flow rate of 0.2 mL/min. Peptides were fractionated using a 75 min gradient from 0 to 100% of buffer SCX-B. Fractions were collected every three minutes from the retention time of 10 to 55 min using a fraction collector (BioFrac Fraction Collector, BioRad Laboratories, Hercules, CA). The peptide mixtures in each of the fraction were further analyzed by the LC-MS/MS.
LC-MS/MS analysis was performed with a nanoUHPLC system (nanoACQUITY UPLC, Waters, Millford, MA) coupled online to the nanoelectrospray source of a hybrid quadrupole time-of-flight mass spectrometer (Q-TOF-MS) (SYNAPT HDMS G2, Waters, Manchester, UK). For LC-MS/MS analysis, water with 0.1% FA and ACN with 0.1% FA were used as the mobile phase. The sample was injected into a trap column (Symmetry C18, 5 μm, 180 μm × 20 mm, Waters, Milford, MA) and separated online with a reverse phase column (BEH C18, 1.7 μm, 75 μm × 250 mm, Waters, Milford, MA) at the flow rate of 300 nL/min using either a 95 min gradient with 5–90% ACN/water ratio. The mass spectrometry instruments were all operated in the positive ion mode, and data-dependent acquisition methods were applied for all experiments. The acquisition settings were set to one full MS scan (350–1600 m/z) with a scan time of 1 second and switched to six product ion scans (50–1900 m/z) with 0.4 second scan time when a precursor ion charge was 2+, 3+, or 4+, and the intensity was higher than 200 counts. The data files generated from LC-MS/MS were processed by UniQua and further analyzed by the MASCOT and Trans Proteomics Pipeline (TPP) 1 version 4.4 rev. 1, and the details and criteria of data processing were described previously.

SMILES: CC(C)=CC[C@@H](O)C1=CC(=O)c2c(O)ccc(O)c2C1=O [shikonin]
- IC50 (U937 leukemia cells): 300 nM
- FC protein 5′-Nucleotidase domain-containing protein 2 (U937 cells): −5.4
- FC protein 60S ribosomal protein L24 (U937 cells): −7.5
- FC protein ATP-dependent RNA helicase DDX3Y (U937 cells): −4.3
- FC protein Cell differentiation protein RCD1 homolog (U937 cells): +10.0
- FC protein Golgi phosphoprotein 3 (U937 cells): −3.5
- FC protein Heme oxygenase 1 (U937 cells): +14.3
- FC protein Heterogeneous nuclear ribonucleoprotein H2 (U937 cells): −4.5
- FC protein Hexokinase-1 (U937 cells): −20.5
- FC protein Histone H2B type 2-E (U937 cells): +7.1
- FC protein Histone H4 (U937 cells): +11.1
- FC protein LIM domain and actin-binding protein 1 (U937 cells): +6.7
- FC protein Leucine-rich repeat-containing protein 58 (U937 cells): −3.5
- FC protein Mannose-6-phosphate isomerase (U937 cells): +7.7
- FC protein Methylosome protein 50 (U937 cells): −4.0
- FC protein Neuronal-specific septin-3 (U937 cells): +6.7
- FC protein Rho GTPase-activating protein 4 (U937 cells): −3.1
- FC protein Schlafen family member 11 (U937 cells): +6.7
- FC protein Sorting nexin-17 (U937 cells): +9.1
- FC protein Vacuolar protein sorting-associated protein 11 homolog (U937 cells): −20.0
- FC protein WD repeat-containing protein 3 (U937 cells): +12.1
